Results on two molecules are retold here after US20190038703A1, “METHODS OF TREATING ACUTE MYELOID LEUKEMIA WITH A FLT3 MUTATION” (Biokine Therapeutics Ltd., priority 2013, published 2019).

Series [1] concerns MV4-11 cells engrafted in NOD SCID gamma (NSG) mice. Nature of the series: AML model of NSG mice engrafted with MV4-11 cells. In kind it is in vivo, mouse. The conditions noted are these: AC220 10 mg/Kg oral, daily for 7 days; for AML cells in the BM / percentage of alive AML blasts in the blood / level of AML cells in the spleen: BL-8040 400 ug/mouse SC; for AML cells in the BM: control 12.6%, FIGS. 11A-11B; for percentage of alive AML blasts in the blood: control 13.5%, FIG. 9; for level of AML cells in the spleen: control 21%, FIGS. 12A-12B. On the procedure: In the in-vivo study an AML model of NOD SCID gamma (NSG) mice engrafted with MV4-11 cells was used. […] The survival and apoptosis of AML cells were examined in the blood, BM and spleen of engrafted mice.
Female mice at the age of 7-9 weeks day (−1) 26/1/14: mice were irradiated with 200 rad 24 hr before cells injection day 0-27/1/14: mice were IV injected with 10×10^6 of MV4-11 cells in total volume of 200 ul PBS.

Series [2] deals with human primary AML cells with FLT3-ITD. In words: Survival assay (PI staining, FACS), human primary AML cells with FLT3-ITD. In kind it is cell-based. The note with it: 48 hr; for decrease of the number of viable cells: human. The text has this:
(§1) Human primary AML cells with FLT3-ITD mutation and with FLT3-WT were obtained from AML patients after getting their consent in accordance with regulations of Chaim Sheba Medical Center (Tel-Aviv, Israel). Peripheral blood mononuclear cells (PBMCs) were separated from blood samples by density-gradient centrifugation on Ficoll-Paque (Pharmacia Biotech, Uppsala, Sweden). The cells were suspended in […] (FCS; Biological Industries, Kibbutz Beit Haemek, Israel), supplement with 10% DMSO then stored in liquid nitrogen. Prior to commencing a toxicity assay the isolated cells were thawed, re-suspended in Roswell Park Memorial Institute medium (RPMI 1640; Gibco BRL life technologies) supplemented with 20% FCS and incubated for 4 hr at 37° C. Isolated cells with FLT3-ITD mutation or with FLT3 wild type (FLT3-WT) were identified by using a procedure essentially as described by Levis and Small (Leukemia 17: 1738-1752, 2003). […] Following incubation the cells were stained with propidium iodide (PI; Sigma, St. Louis, Mo.; 1:1000) and the incidence of dead cells (% PI-positive) and the density of viable cells (PI-negative) were determined by FACScalibur using the procedure described by Beider and Begin (Exp Hematol 39: 282-92, 2011).

A further series concerns human AML xenografts. The conditions noted are these: subcutaneous injections; Beider et al., Exp. Hematol. 2011; cited from earlier work.
In series [3] the test system is human AML MV4-11 cells (FLT3-ITD). In words: Example 2 in-vitro viability and apoptosis by FACS. The note with it: BL-8040 20 μM, 48 hrs. In kind it is cell-based. In general terms: A flow cytometer gives signals particle by particle.
Protocol: Methods: The human AML MV4-11 cells (FLT3-ITD) was used. Cells were in-vitro incubated for 48 hrs in the presence of BL-8040 (20 μM), AC220 (50 nM) or their combination. The level of viable cells, percentage of apoptosis was evaluated by FACS.
The subject of series [4] is malignant cells of hematopoietic origin including AML. The conditions noted are these: cited from earlier work.
For series [5], the system named is human primary AML cells with wild-type FLT3. In words: Survival assay (PI staining, FACS), human primary AML cells with FLT3-WT. In kind it is cell-based. The conditions noted are these: 48 hr; for decrease of the number of viable cells: human.
Excerpt: as §1

Where a SMILES comes first, the peptide text is derived from it. Bridges are numbered along the chain shown (N, C = ends). [ ]: non-standard residue; d: D form. The star is where a group is joined. 2Nal = N[C@@H](Cc1ccc2ccccc2c1)C(=O)O; Benzoyl(4-F) = O=C(c1ccc(F)cc1)*; Cit = NC(=O)NCCC[C@H](N)C(=O)O

Consider `CC(C)(C)c1cc(NC(=O)Nc2ccc(-c3cn4c(n3)sc3cc(OCCN5CCOCC5)ccc34)cc2)no1` [AC220, Quizartinib], for which the “reduction of total mouse WBC compared to the control” value in series [1] (FIG. 10) is 65%. In series [1], the “AML cells in the BM” value came to 0.05%, the “percentage of alive AML blasts in the blood” value amounted to 0.1% and the “level of AML cells in the spleen” value turned out to be 0.09%.

As for `N=C(N)NCCC[C@H](NC(=O)[C@@H]1CSSC[C@H](NC(=O)[C@H](Cc2ccc3ccccc3c2)NC(=O)[C@H](CCCNC(=N)N)NC(=O)[C@H](CCCNC(=N)N)NC(=O)c2ccc(F)cc2)C(=O)N[C@@H](Cc2ccc(O)cc2)C(=O)N[C@@H](CCCNC(N)=O)C(=O)N[C@@H](CCCCN)C(=O)N[C@H](CCCCN)C(=O)N2CCC[C@H]2C(=O)N[C@@H](Cc2ccc(O)cc2)C(=O)N[C@@H](CCCNC(=N)N)C(=O)N[C@@H](CCCNC(N)=O)C(=O)N1)C(N)=O` [BL-8040, 4F-benzoyl-Arg-Arg-Nal-Cys-Tyr-Cit-Lys-DLys-Pro-Tyr-Arg-Cit-Cys-Arg-NH2] ({Benzoyl(4-F)}-RR[2Nal]CY[Cit]K[dK]PYR[Cit]CR-NH2; disulfide 4-13), the “increase of the percentage of dead cells” value in series [2] (BL-8040 8 μM, FIG. 1A) is 79.3%; in series [2] (BL-8040 20 μM, FIG. 7A), 116.6%; in series [5] (BL-8040 8 μM, FIG. 2A), 13.7%; in series [5] (BL-8040 20 μM, FIG. 8A), 56.3%. Also, the “decrease of the number of viable cells” value in series [2] (8 μM) is recorded as 28.8%; in series [2] (20 μM) it was 50.0%; in series [5] (8 μM), 16.1%; in series [5] (20 μM) it was 34.4%. Also, the “growth of human AML xenografts” value in the series on human AML xenografts is “significantly reduced the growth”. Moreover, in series [1], the “AML cells in the BM” value is listed as 2.6%. For the same molecule, the “percentage of alive AML blasts in the blood” value in series [1] is listed as 1.7%. Also, the “level of AML cells in the spleen” value in series [1] was 0.4%. Also, the “inhibition of cell growth” value in series [3] turned out to be 35%. The cell death in series [3] (AC220 50 nM or their combination) worked out at 40%. Further, the “cytotoxicity toward malignant cells of hematopoietic origin” value in series [4] is “CXCR4-dependent preferential cytotoxicity”.
